ChEMBL document CHEMBL4842340, “Development of Cagrilintide, a Long-Acting Amylin Analogue” (J Med Chem, 2021)
In brackets after ≈: the same amount, converted by molar mass. Values belong to the compound of their own block, whether it stands above or below them. *1 amine or outer side, *2 acyl side, *3 side chain or, on linkers, in order; H or OH if unused. Where a SMILES comes first, the peptide text is derived from it. Bridges are numbered along the chain shown (N, C = ends). The star is where a group is joined. C20 diacid = O=C(O)CCCCCCCCCCCCCCCCCCC(=O)*; γGlu = O=C(O)[C@H](CCC(=O)[*:2])N[*:1]

Assays:
Rattus norvegicus [1] = experiment: Reduction in food intake in Sprague-Dawley rat at 30 nmol/kg, sc administered as single dose measured after 24 to 48 hrs relative to control; type: functional; set-up: scale not given: the % may be the effect or the level left; conditions: time 24-48 hrs
Rattus norvegicus [2] = experiment: Reduction in food intake in Sprague-Dawley rat at 30 nmol/kg, sc administered as single dose measured upto 24 hrs relative to control; type: functional; set-up: scale not given: the % may be the effect or the level left; conditions: time hrs <=24
Homo sapiens [3] = species on record: Homo sapiens; experiment: Ratio of IC50 for displacement of [125I]-calcitonin from human calcitonin receptor expressed in tk-ts 13 cells to IC50 for displacement of [125I]-amylin from human AMY3R (CTR+RAMP3) expressed in BHK-13 cells; type: cell-based
Insulin (Homo sapiens) [4] = molecular target: Insulin (Homo sapiens) (UniProt P01308); experiment: Effect on insulin (unknown origin) amyloid fibril formation assessed as peptide recovery in glycyl-glycine buffer at pH 4 measured after 45 hrs by thioflavin-T fluorescence assay relative to control; set-up: concentration or dose not given beside the values
[5] = Solubility of the compound in lactate at pH 4 by UPLC analysis; type: physicochemical; conditions: lactate buffer
[6] = Displacement of [125I]-amylin from human AMY3R (CTR+RAMP3) expressed in BHK-13 cells measured after 120 mins by scintillation proximity assay; type: cell-based
[7] = Solubility of the compound in bis-tris propane at pH 7.5 by UPLC analysis; type: physicochemical; conditions: bis-tris propane buffer
Insulin (Homo sapiens) [8] = molecular target: Insulin (Homo sapiens) (UniProt P01308); experiment: Effect on insulin (unknown origin) amyloid fibril formation assessed as lag time in glycyl-glycine buffer at pH 4 measured after 45 hrs by thioflavin-T fluorescence assay
[9] = Displacement of [125I]-calcitonin from human calcitonin receptor expressed in tk-ts 13 cells measured after 120 mins by scintillation proximity assay; type: cell-based; conditions: tk-ts13
[10] = Solubility of the compound in lactate at pH 5 by UPLC analysis; type: physicochemical; conditions: lactate buffer
Homo sapiens [11] = species on record: Homo sapiens; experiment: Ratio of EC50 for human calcitonin receptor expressed in BHK570 cells to EC50 for human AMY3R (CT+RAMP3) expressed in Hollex1 cells; type: cell-based
Rattus norvegicus [12] = experiment: Reduction in food intake in Sprague-Dawley rat at 3 nmol/kg, sc administered as single dose measured after 24 to 48 hrs relative to control; type: functional; set-up: scale not given: the % may be the effect or the level left; conditions: time 24-48 hrs
Rattus norvegicus [13] = species on record: Rattus norvegicus; experiment: Ratio of IC50 for displacement of [125I]-calcitonin from rat calcitonin receptor expressed in tk-ts 13 cells to IC50 for displacement of [125I]-amylin from rat AMY3R (CTR+RAMP3) expressed in BHK-13 cells; type: cell-based
[14] = Solubility of the compound in bis-tris propane at pH 7 by UPLC analysis; type: physicochemical; conditions: bis-tris propane buffer
Rattus norvegicus [15] = experiment: Reduction in food intake in Sprague-Dawley rat at 3 nmol/kg, sc administered as single dose measured upto 24 hrs relative to control; type: functional; set-up: scale not given: the % may be the effect or the level left; conditions: time hrs <=24
[16] = Agonist activity at human calcitonin receptor expressed in BHK570 cells assessed as increase in intracellular cAMP concentration incubated for 3 hrs in absence of albumin by CRE luciferase reporter gene assay; type: cell-based; conditions: BHK570, 3 h
[17] = Agonist activity at human AMY3R (CT+RAMP3) expressed in Hollex1 cells incubated for 3 hrs by luminescence assay; type: cell-based; conditions: Hollex1, 3 h
[18] = Solubility of the compound in bis-tris propane at pH 6 by UPLC analysis; type: physicochemical; conditions: bis-tris propane buffer
[19] = Solubility of the compound in bis-tris propane at pH 8 by UPLC analysis; type: physicochemical; conditions: bis-tris propane buffer
[20] = Solubility of the compound in lactate at pH 3 by UPLC analysis; type: physicochemical; conditions: lactate buffer
[21] = Displacement of [125I]-amylin from rat AMY3R (CTR+RAMP3) expressed in BHK-13 cells measured after 120 mins by scintillation proximity assay; type: cell-based
[22] = Solubility of the compound in bis-tris propane at pH 6.5 by UPLC analysis; type: physicochemical; conditions: bis-tris propane buffer
[23] = Displacement of [125I]-calcitonin from rat calcitonin receptor expressed in tk-ts 13 cells measured after 120 mins by scintillation proximity assay; type: cell-based; conditions: tk-ts13

Sequence of Insulin (Homo sapiens) (P01308 whole entry): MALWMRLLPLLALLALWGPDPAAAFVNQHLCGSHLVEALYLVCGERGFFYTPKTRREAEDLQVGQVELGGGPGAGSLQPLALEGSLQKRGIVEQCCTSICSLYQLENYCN

SMILES: CC[C@H](C)[C@H](NC(=O)[C@H](CCC(=O)O)NC(=O)CNC(=O)[C@H](Cc1ccccc1)NC(=O)[C@H](CC(N)=O)NC(=O)[C@H](CC(N)=O)NC(=O)[C@H](CO)NC(=O)[C@H](CO)NC(=O)[C@H](CCCNC(=N)N)NC(=O)[C@H](Cc1cnc[nH]1)NC(=O)[C@H](CC(C)C)NC(=O)[C@H](Cc1ccccc1)NC(=O)[C@H](CCC(=O)O)NC(=O)[C@H](C)NC(=O)[C@H](CC(C)C)NC(=O)[C@H](CCCNC(=N)N)NC(=O)[C@H](CCC(N)=O)NC(=O)[C@@H](NC(=O)[C@H](C)NC(=O)[C@@H]1CSSC[C@H](NC(=O)[C@H](Cc2cnc[nH]2)NC(=O)CC[C@H](NC(=O)CCCCCCCCCCCCCCCCCCC(=O)O)C(=O)O)C(=O)N[C@@H](CC(N)=O)C(=O)N[C@@H]([C@@H](C)O)C(=O)N[C@@H](C)C(=O)N[C@@H]([C@@H](C)O)C(=O)N1)[C@@H](C)O)C(=O)N[C@@H](CC(C)C)C(=O)N[C@@H](CO)C(=O)N[C@@H](CCCNC(=N)N)C(=O)N[C@H](C(=O)N[C@@H](CC(N)=O)C(=O)N[C@H](C(=O)NCC(=O)N[C@@H](CO)C(=O)N[C@@H](CC(N)=O)C(=O)N[C@H](C(=O)N[C@@H](Cc1ccc(O)cc1)C(N)=O)[C@@H](C)O)C(C)C)[C@@H](C)O
Activity (Rattus norvegicus [1]): 46%
Activity (Rattus norvegicus [2]): 53%

Activity (Insulin (Homo sapiens) [4]): 0%
solubility [5]: 200 µM (≈ 866 µg/mL)
IC50 [6]: 1350 pM
solubility [7]: 200 µM (≈ 866 µg/mL)
TIME (Insulin (Homo sapiens) [8]): 9 h
IC50 [9]: 469 pM
solubility [10]: 200 µM (≈ 866 µg/mL)
solubility [14]: 200 µM (≈ 866 µg/mL)
EC50 [16]: 117 pM
EC50 [17]: 125 pM
solubility [18]: 200 µM (≈ 866 µg/mL)
solubility [19]: 200 µM (≈ 866 µg/mL)
solubility [20]: 200 µM (≈ 866 µg/mL)
IC50 [21]: 182 pM
solubility [22]: 200 µM (≈ 866 µg/mL)
IC50 [23]: 930 pM
SMILES: CC[C@H](C)[C@H](NC(=O)[C@@H]1CCCN1C(=O)CNC(=O)[C@H](Cc1ccccc1)NC(=O)[C@H](CC(N)=O)NC(=O)[C@H](CC(N)=O)NC(=O)[C@H](CO)NC(=O)[C@H](CO)NC(=O)[C@H](Cc1cnc[nH]1)NC(=O)[C@H](Cc1cnc[nH]1)NC(=O)[C@H](CC(C)C)NC(=O)[C@H](Cc1ccccc1)NC(=O)[C@H](CCC(=O)O)NC(=O)[C@H](C)NC(=O)[C@H](CC(C)C)NC(=O)[C@H](CCCNC(=N)N)NC(=O)[C@H](CCC(N)=O)NC(=O)[C@@H](NC(=O)[C@H](C)NC(=O)[C@@H]1CSSC[C@H](NC(=O)CC[C@H](NC(=O)CCCCCCCCCCCCCCCCCCC(=O)O)C(=O)O)C(=O)N[C@@H](CC(N)=O)C(=O)N[C@@H]([C@@H](C)O)C(=O)N[C@@H](C)C(=O)N[C@@H]([C@@H](C)O)C(=O)N1)[C@@H](C)O)C(=O)N[C@@H](CC(C)C)C(=O)N1CCC[C@H]1C(=O)N1CCC[C@H]1C(=O)N[C@H](C(=O)N[C@@H](CC(N)=O)C(=O)N[C@H](C(=O)NCC(=O)N[C@@H](CO)C(=O)N[C@@H](CC(N)=O)C(=O)N[C@H](C(=O)N[C@@H](Cc1ccc(O)cc1)C(N)=O)[C@@H](C)O)C(C)C)[C@@H](C)O ({C20 diacid-γGlu}-CNTATCATQRLAEFLHHSSNNFGPILPPTNVGSNTY-NH2; disulfide 1-6)
Ratio IC50 (Homo sapiens [3]): 0.3
Ratio EC50 (Homo sapiens [11]): 1
Activity (Rattus norvegicus [12]): 36%
Ratio IC50 (Rattus norvegicus [13]): 5
Activity (Rattus norvegicus [15]): 39%
